Results from ChEMBL document CHEMBL5303573, “Mapping human microbiome drug metabolism by gut bacteria and their genes” (Nature, 2019).

Assays:
[1] = The drug is tested on Bacteroides fragilis strain: ATCC43859 for biotransformation. The drug concentrations were measured before and after a 12-h incubation by liquid-chromatography-coupled mass spectrometry (LC–MS); conditions: 2 µM
[2] = The drug is tested on Bacteroides vulgatus strain: ATCC8482 for biotransformation. The drug concentrations were measured before and after a 12-h incubation by liquid-chromatography-coupled mass spectrometry (LC–MS); conditions: phocaeicola vulgatus, 2 µM
[3] = bacteroides fragilis, 12 h, 2 µM
Description: The drug is tested on Bacteroides fragilis strain: DS-208 for biotransformation. The drug concentrations were measured before and after a 12-h incubation by liquid-chromatography-coupled mass spectrometry (LC–MS)

[4] = bacteroides fragilis, 12 h, 2 µM; remark: listed apart in the source
Description: The drug is tested on Bacteroides fragilis strain: 3397 (T10) for biotransformation. The drug concentrations were measured before and after a 12-h incubation by liquid-chromatography-coupled mass spectrometry (LC–MS)

[5] = The drug is tested on Eubacterium hallii strain: DSM3353 for biotransformation. The drug concentrations were measured before and after a 12-h incubation by liquid-chromatography-coupled mass spectrometry (LC–MS); conditions: anaerobutyricum hallii, 2 µM
[6] = The drug is tested on Providencia rettgeri strain: DSM1131 for biotransformation. The drug concentrations were measured before and after a 12-h incubation by liquid-chromatography-coupled mass spectrometry (LC–MS); format: ADME; parameters: dose 2 uM, timepoint 0 vs 12 hours; conditions: 2 µM
[7] = The drug is tested on Bacteroides ovatus strain: ATCC8483 for biotransformation. The drug concentrations were measured before and after a 12-h incubation by liquid-chromatography-coupled mass spectrometry (LC–MS); conditions: 2 µM
[8] = bacteroides fragilis, 12 h, 2 µM; remark: listed apart in the source
Description: The drug is tested on Bacteroides fragilis strain: NCTC 9343 for biotransformation. The drug concentrations were measured before and after a 12-h incubation by liquid-chromatography-coupled mass spectrometry (LC–MS)

[9] = The drug is tested on Bacteroides dorei strain: DSM17855 for biotransformation. The drug concentrations were measured before and after a 12-h incubation by liquid-chromatography-coupled mass spectrometry (LC–MS); conditions: phocaeicola dorei, 2 µM
[10] = The drug is tested on Blautia hansenii strain: DSM20583 for biotransformation. The drug concentrations were measured before and after a 12-h incubation by liquid-chromatography-coupled mass spectrometry (LC–MS); conditions: 2 µM
[11] = The drug is tested on Parabacteroides merdae strain: ATCC43184 for biotransformation. The drug concentrations were measured before and after a 12-h incubation by liquid-chromatography-coupled mass spectrometry (LC–MS); conditions: 2 µM
[12] = The drug is tested on Providencia stuartii strain: ATCC25827 for biotransformation. The drug concentrations were measured before and after a 12-h incubation by liquid-chromatography-coupled mass spectrometry (LC–MS); conditions: 2 µM
[13] = The drug is tested on Anaerococcus hydrogenalis strain: DSM7454 for biotransformation. The drug concentrations were measured before and after a 12-h incubation by liquid-chromatography-coupled mass spectrometry (LC–MS); conditions: 2 µM
[14] = bifidobacterium adolescentis, 12 h, 2 µM
Description: The drug is tested on Bifidobacterium adolescentis strain: ATCC 15703 for biotransformation. The drug concentrations were measured before and after a 12-h incubation by liquid-chromatography-coupled mass spectrometry (LC–MS)

[15] = The drug is tested on Bacteroides coprophilus strain: DSM18228 for biotransformation. The drug concentrations were measured before and after a 12-h incubation by liquid-chromatography-coupled mass spectrometry (LC–MS); conditions: 2 µM
[16] = The drug is tested on Collinsella intestinalis strain: DSM13280 for biotransformation. The drug concentrations were measured before and after a 12-h incubation by liquid-chromatography-coupled mass spectrometry (LC–MS); conditions: 2 µM
[17] = anaerostipes sp., 12 h, 2 µM
Description: The drug is tested on Anaerostipes sp. strain: fecal isolate for biotransformation. The drug concentrations were measured before and after a 12-h incubation by liquid-chromatography-coupled mass spectrometry (LC–MS)

[18] = The drug is tested on Coprococcus comes strain: ATCC27758 for biotransformation. The drug concentrations were measured before and after a 12-h incubation by liquid-chromatography-coupled mass spectrometry (LC–MS); format: ADME; parameters: dose 2 uM, timepoint 0 vs 12 hours; conditions: 2 µM
[19] = bacteroides stercoris, 12 h, 2 µM
Description: The drug is tested on Bacteroides stercoris strain: ATCC43183 for biotransformation. The drug concentrations were measured before and after a 12-h incubation by liquid-chromatography-coupled mass spectrometry (LC–MS)

Bacterial Biotransformation [1] | Bacterial Biotransformation [2] | Bacterial Biotransformation [3] | Bacterial Biotransformation [4] | Bacterial Biotransformation [5] | Bacterial Biotransformation [6] | Bacterial Biotransformation [7] | Bacterial Biotransformation [8] | Bacterial Biotransformation [9] | Bacterial Biotransformation [10] | Bacterial Biotransformation [11] | Bacterial Biotransformation [12] | Bacterial Biotransformation [13] | Bacterial Biotransformation [14] | Bacterial Biotransformation [15] | Bacterial Biotransformation [16] | Bacterial Biotransformation [17] | Bacterial Biotransformation [18] | Bacterial Biotransformation [19] | SMILES
Compound metabolized | Compound NOT metabolized | Compound NOT metabolized | Compound NOT metabolized | Compound NOT metabolized | Compound NOT metabolized |  | Compound NOT metabolized | Compound NOT metabolized | Compound NOT metabolized |  | Compound NOT metabolized | Compound NOT metabolized |  | Compound NOT metabolized | Compound NOT metabolized | Compound NOT metabolized | Compound NOT metabolized |  | COc1ccc2cc([C@H](C)C(=O)O)ccc2c1 [NAPROXEN]
Compound NOT metabolized | Compound NOT metabolized |  | Compound NOT metabolized | Compound NOT metabolized | Compound NOT metabolized | Compound NOT metabolized | Compound NOT metabolized | Compound NOT metabolized | Compound NOT metabolized |  | Compound NOT metabolized | Compound NOT metabolized | Compound NOT metabolized | Compound NOT metabolized | Compound NOT metabolized | Compound NOT metabolized | Compound NOT metabolized |  | CC(C)(C)N.CCC[C@H](N[C@@H](C)C(=O)N1[C@H](C(=O)O)C[C@@H]2CCCC[C@@H]21)C(=O)OCC [PERINDOPRIL ERBUMINE]
Compound NOT metabolized | Compound NOT metabolized | Compound NOT metabolized | Compound NOT metabolized | Compound NOT metabolized | Compound NOT metabolized | Compound NOT metabolized | Compound NOT metabolized | Compound NOT metabolized | Compound NOT metabolized | Compound NOT metabolized |  | Compound NOT metabolized | Compound NOT metabolized | Compound NOT metabolized | Compound NOT metabolized | Compound NOT metabolized | Compound NOT metabolized | Compound NOT metabolized | CCOc1ccc(NC(C)=O)cc1 [PHENACETIN]

Further lines, the molecule ahead of its results:

SMILES | Bacterial Biotransformation [1] | Bacterial Biotransformation [2] | Bacterial Biotransformation [3] | Bacterial Biotransformation [4] | Bacterial Biotransformation [5] | Bacterial Biotransformation [6] | Bacterial Biotransformation [7] | Bacterial Biotransformation [8] | Bacterial Biotransformation [9] | Bacterial Biotransformation [10] | Bacterial Biotransformation [11] | Bacterial Biotransformation [12] | Bacterial Biotransformation [13] | Bacterial Biotransformation [14] | Bacterial Biotransformation [15] | Bacterial Biotransformation [16] | Bacterial Biotransformation [17] | Bacterial Biotransformation [18] | Bacterial Biotransformation [19]
CN1CCc2c(c3ccccc3n2Cc2ccccc2)C1.CN1CCc2c(c3ccccc3n2Cc2ccccc2)C1.O=S(=O)(O)c1cccc2c(S(=O)(=O)O)cccc12 | Compound NOT metabolized | Compound NOT metabolized | Compound NOT metabolized | Compound NOT metabolized | Compound NOT metabolized | Compound NOT metabolized | Compound NOT metabolized | Compound NOT metabolized | Compound NOT metabolized | Compound NOT metabolized | Compound NOT metabolized | Compound NOT metabolized | Compound NOT metabolized | Compound NOT metabolized | Compound NOT metabolized | Compound NOT metabolized | Compound NOT metabolized | Compound NOT metabolized | Compound NOT metabolized
CC(=O)OCC(=O)[C@@]1(OC(C)=O)[C@@H](C)C[C@H]2[C@@H]3C[C@H](F)C4=CC(=O)C=C[C@]4(C)[C@@]3(F)[C@@H](O)C[C@@]21C [DIFLORASONE DIACETATE] | Compound metabolized | Compound metabolized | Compound metabolized | Compound metabolized | Compound NOT metabolized | Compound metabolized | Compound metabolized | Compound metabolized | Compound metabolized | Compound metabolized | Compound metabolized |  | Compound NOT metabolized | Compound metabolized | Compound NOT metabolized | Compound NOT metabolized | Compound metabolized | Compound NOT metabolized | Compound metabolized
CC(=O)OCC(CCn1cnc2cnc(N)nc21)COC(C)=O [FAMCICLOVIR] | Compound metabolized | Compound metabolized | Compound metabolized | Compound metabolized | Compound NOT metabolized | Compound NOT metabolized | Compound metabolized | Compound metabolized | Compound metabolized | Compound NOT metabolized | Compound metabolized | Compound NOT metabolized | Compound NOT metabolized |  | Compound metabolized | Compound NOT metabolized | Compound NOT metabolized | Compound NOT metabolized | Compound metabolized
CC(C)(C(=O)O)c1ccc(C(O)CCCN2CCC(C(O)(c3ccccc3)c3ccccc3)CC2)cc1 (configuration not stated) [FEXOFENADINE] | Compound NOT metabolized | Compound NOT metabolized | Compound NOT metabolized | Compound NOT metabolized | Compound NOT metabolized | Compound NOT metabolized | Compound NOT metabolized | Compound NOT metabolized | Compound NOT metabolized | Compound NOT metabolized | Compound NOT metabolized | Compound NOT metabolized | Compound NOT metabolized | Compound NOT metabolized | Compound NOT metabolized | Compound NOT metabolized | Compound NOT metabolized |  | Compound NOT metabolized
